Measured values taken from patent publication US10646469B2, “Substituted indole derivatives as dengue viral replication inhibitors” (Janssen Pharmaceuticals, Inc., priority 2016, dated 2020).

Legend:
[1] = Cytotoxicity in RT-qPCR assay (Cp of housekeeping gene β-actin); type: cell-based; details: African green monkey
Experimental: (§1) The antiviral activity of the compounds of the invention was tested against DENV-1 strain TC974 #666 (NCPV), DENV-2 strain 16681, DENV-3 strain H87 (NCPV) and DENV-4 strain H241 (NCPV) in a RT-qPCR assay. Therefore, Vero cells were infected with either DENV-1, or -2, or -3, or -4 in the presence or absence of test compounds. At day 3 post-infection, the cells were lysed and cell lysates were used to prepare cDNA of both a viral target (the 3′UTR of DENV; Table 2) and cellular reference gene (β-actin, Table 2). Subsequently, a duplex real time PCR was performed on a Lightcycler480 instrument. The generated Cp value is inversely proportional to the amount of RNA expression of these targets. Inhibition of DENV replication by a test compound results in a shift of Cp's for the 3′UTR gene. On the other hand, if a test compound is toxic to the cells, a similar effect on β-actin expression will be observed. The comparative ΔΔCp method is used to calculate EC50, which is based on the relative gene expression of the target gene (3′UTR) normalized with the cellular housekeeping gene (β-actin). In addition, CC50 values are determined based on the Cp values acquired for the housekeeping gene β-actin.
(§2) The culture medium consisted of minimal essential medium supplemented with 2% of heat-inactivated fetal calf serum, 0.04% gentamycin (50 mg/mL) and 2 mM of L-glutamine. Vero cells, obtained from ECACC, were suspended in culture medium and 75 μL/well was added in 96-well plates (10000 cells/well), which already contain the antiviral compounds. […] In addition, each plate contains wells which are assigned as virus controls (containing cells and virus in the absence of compound) and cell controls (containing cells in the absence of virus and compound). Once the cells were added in the plates, the plates were incubated in a fully humidified incubator (37° C., 5% CO2) until the next day. Dengue viruses serotype-1, 2, 3 and 4 were diluted in order to obtain a Cp of ˜22-24 in the assay. Therefore, 25 μL of virus suspension was added to all the wells containing test compound and to the wells assigned as virus control. In parallel, 25 μL of culture medium was added to the cell controls. Next, the plates were incubated for 3 days in a fully humidified incubator (37° C., 5% CO2). After 3 days, the supernatant was removed from the wells and the cells were washed twice with ice-cold PBS (˜100 μL). The cell pellets within the 96-well plates were stored at −80° C. for at least 1 day. Next, RNA was extracted using the Cells-to-CT™ lysis kit, according to the manufacturer's guideline (Life Technologies). The cell lysates can be stored at −80° C. or immediately used in the reverse transcription step.
(§3) Using the LightCycler software and an in-house LIMS system, dose response curves for each compound were calculated and the half maximal effective concentration (EC50) and the half maximal cytotoxic concentration (CC50) were determined (Tables 5-8).

DENV-3 strain H87 = test: Tetravalent RT-qPCR assay, serotype 3; type: cell-based; details: Dengue virus, DENV3, 72 h; RT-qPCR serotype 3 H87, Protocol A, Vero cells, day 3
Experimental: as §1, §2
(§4) In preparation of the reverse transcription step, mix A (table 3A) was prepared and 7.57 μL/well was dispensed in a 96-well plate. After addition of 5 μL of the cell lysates, a five minute denaturation step at 75° C. was performed (table 3B). Afterwards, 7.43 μL of mix B was added (table 3C) and the reverse transcription step was initiated (table 3D) to generate cDNA.
(§5) Finally, a RT-qPCR mix was prepared, mix C (table 4A), and 22.02 μL/well was dispensed in 96-well LightCycler qPCR plates to which 3 μL of cDNA was added and the qPCR was performed according to the conditions in table 4B on a LightCycler 480.
as §3

DENV-4 strain H241 = test: Tetravalent RT-qPCR assay, serotype 4; type: cell-based; details: Dengue virus, DENV4, 72 h; RT-qPCR serotype 4 H241, Protocol A, Vero cells, day 3
Experimental: as §1, §2, §4, §5, §3

DENV-2 16681 strain = test: DENV-2 antiviral assay (eGFP-labeled virus in Vero cells); type: cell-based, Dengue virus; details: DENV-2 16681 eGFP, MOI 0.5, 3 days
Experimental: The antiviral activity of all the compounds of the invention was tested against the DENV-2 16681 strain which was labeled with enhanced green fluorescent protein (eGPF). The culture medium consists of minimal essential medium supplemented with 2% of heat-inactivated fetal calf serum, 0.04% gentamycin (50 mg/mL) and 2 mM of L-glutamine. Vero cells, obtained from ECACC, were suspended in culture medium and 25 μL was added to 384-well plates (2500 cells/well), which already contain the antiviral compounds. Typically, these plates contain a 5-fold serial dilution of 9 dilution steps of the test compound at 200 times the final concentration in 100% DMSO (200 nL). […] Finally, each plate contains wells which are assigned as virus controls (containing cells and virus in the absence of compound), cell controls (containing cells in the absence of virus and compound) and medium controls (containing medium in the absence of cells, virus and compounds). To the wells assigned as medium control, 25 μL of culture medium was added instead of Vero cells. Once the cells were added to the plates, the plates were incubated for 30 minutes at room temperature to allow the cells to distribute evenly within the wells. Next, the plates were incubated in a fully humidified incubator (37° C., 5% CO2) until the next day. Then, DENV-2 strain 16681, labeled with eGFP, was added at a multiplicity of infection (MOI) of 0.5. Therefore, 15 μL of virus suspension was added to all the wells containing test compound and to the wells assigned as virus control. In parallel, 15 μL of culture medium was added to the medium and cell controls. Next, the plates were incubated for 3 days in a fully humidified incubator (37° C., 5% CO2). At the day of the read out, the eGFP fluorescence was measured using an automated fluorescence microscope at 488 nm (blue laser). Using an in-house LIMS system, inhibition dose response curves for each compound were calculated and the half maximal effective concentration (EC50) was determined. Therefore, the percent inhibition (I) for every test concentration is calculated using the following formula: I=100*([…])/(SVC−SCC); ST, SCC and SVC are the amount of eGFP signal in the test compound, cell control and virus control wells, respectively. The EC50 represents the concentration of a compound at which the virus replication is inhibited with 50%, as measured by a 50% reduction of the eGFP fluorescent intensity compared to the virus control. The EC50 is calculated using linear interpolation (Table 1).

DENV-2 strain 16681 = test: Tetravalent RT-qPCR assay, serotype 2; type: cell-based; details: Dengue virus, DENV2, 72 h; RT-qPCR serotype 2 16681, Protocol A, Vero cells, day 3
Experimental: as §1, §2, §4, §5, §3

DENV-1 strain TC974 #666 = test: Tetravalent RT-qPCR assay, serotype 1; type: cell-based; details: Dengue virus, DENV1, 72 h; RT-qPCR serotype 1 TC974#666, Protocol A, Vero cells, day 3
Experimental: as §1, §2, §4, §5, §3

Vero cells = test: Toxicity on the same plates (ATPlite cell viability); details: Vero cells, same plates as DENV-2 antiviral assay
[2] = as above; details: African green monkey, CC50, Vero cells, same plates as DENV-2 antiviral assay
[3] = RT-qPCR serotype 1 TC974#666, Protocol A
[4] = RT-qPCR serotype 2 16681, Protocol A
[5] = RT-qPCR serotype 3 H87, Protocol A
[6] = RT-qPCR serotype 4 H241, Protocol A
[7] = Dengue virus, DENV2, Vero, 72 h

Compound | CC50 at 3 days [1, 3] [nM] | CC50 at 3 days [1, 4] [nM] | CC50 at 3 days [1, 5] [nM] | CC50 at 3 days [1, 6] [nM] | EC50 (DENV-3 strain H87) [nM] | EC50 (DENV-4 strain H241) [nM] | EC50 (DENV-2 16681 strain) [nM] | EC50 (DENV-2 strain 16681) [nM] | EC50 (DENV-1 strain TC974 #666) [nM] | CC50 (Vero cells) [nM] | CC50 [2] [nM] | EC50 (DENV-2 16681 strain; [7]) [nM]
COc1cc(NC(C(=O)c2c[nH]c3ccc(OC(F)(F)F)cc23)c2ccc(Cl)cc2OC)cc(OCCO)c1 (single isomer, unassigned) [Compound 13A, 2-(4-chloro-2-methoxyphenyl)-2-((3-(2-hydroxyethoxy)-5-methoxyphenyl)amino)-1-(5-(trifluoromethoxy)-1H-indol-3-yl)ethanone] | 1200 | 2600 | > 2500 | > 2500 | 3.5 | 20 | 0.14 | 0.2 | 0.51 | – | – | –
COc1cc(NC(C(=O)c2c[nH]c3c(C)cc(OC(F)(F)F)cc23)c2ccc(F)cc2OC)cc(OCCO)c1 (single isomer, unassigned) [Compound 8A, 2-(4-fluoro-2-methoxyphenyl)-2-((3-(2-hydroxyethoxy)-5-methoxyphenyl)amino)-1-(7-methyl-5-(trifluoromethoxy)-1H-indol-3-yl)ethanone] | 2100 | 3700 | > 2400 | 2600 | 5.8 | 48 | 0.35 | 0.31 | 0.71 | 2900 | – | –
COc1cc(NC(C(=O)c2c[nH]c3ccc(C(F)(F)F)cc23)c2ccc(Cl)cc2OC)cc(OCCO)c1 (single isomer, unassigned) [Compound 9B, 2-(4-chloro-2-methoxyphenyl)-2-((3-(2-hydroxyethoxy)-5-methoxyphenyl)amino)-1-(5-(trifluoromethyl)-1H-indol-3-yl)ethanone] | > 2000 | 3400 | > 2500 | 2700 | 6.3 | 50 | 0.18 | 0.27 | 0.88 | 3300 | – | –
COc1cc(NC(C(=O)c2c[nH]c3cc(F)c(OC(F)(F)F)cc23)c2ccc(F)cc2OC)cc(OCCO)c1 (single isomer, unassigned) [Compound 7B, 2-(4-fluoro-2-methoxyphenyl)-1-(6-fluoro-5-(trifluoromethoxy)-1H-indol-3-yl)-2-((3-(2-hydroxyethoxy)-5-methoxyphenyl)amino)ethanone] | > 2500 | > 2500 | > 2500 | 2100 | 8.2 | 52 | 0.53 | 0.55 | 1.2 | 2400 | – | –
COc1cc(NC(C(=O)c2c[nH]c3ccc(C(F)(F)F)cc23)c2ccc(F)cc2OC)cc(OCCO)c1 (single isomer, unassigned) [Compound 1B, 2-(4-fluoro-2-methoxyphenyl)-2-((3-(2-hydroxyethoxy)-5-methoxyphenyl)amino)-1-(5-(trifluoromethyl)-1H-indol-3-yl)ethanone] | 3300 | 3500 | 3200 | 2600 | 14 | 50 | 0.62 | 0.41 | 1.3 | – | – | –
COc1cc(NC(C(=O)c2c[nH]c3ccc(C(F)(F)F)cc23)c2ccc(Cl)cc2OC)cc(OCCO)c1 (racemic) [Compound 9, 2-(4-chloro-2-methoxyphenyl)-2-((3-(2-hydroxyethoxy)-5-methoxyphenyl)amino)-1-(5-(trifluoromethyl)-1H-indol-3-yl)ethanone] | – | – | – | – | – | – | – | – | – | – | 2500 | 0.29
COc1cc(NC(C(=O)c2c[nH]c3cc(F)c(OC(F)(F)F)cc23)c2ccc(Cl)cc2OC)cc(OCCO)c1 (single isomer, unassigned) [Compound 15A, 2-(4-chloro-2-methoxyphenyl)-1-(6-fluoro-5-(trifluoromethoxy)-1H-indol-3-yl)-2-((3-(2-hydroxyethoxy)-5-methoxyphenyl)amino)ethanone] | – | – | – | – | – | – | 9.9 | – | – | – | 3800 | –
COc1cc(NC(C(=O)c2c[nH]c3cc(F)c(C(F)(F)F)cc23)c2ccc(F)cc2OC)cc(OCCO)c1 (racemic) [Compound 3, 2-(4-fluoro-2-methoxyphenyl)-1-(6-fluoro-5-(trifluoromethyl)-1H-indol-3-yl)-2-((3-(2-hydroxyethoxy)-5-methoxyphenyl)amino)ethanone] | – | – | – | – | – | – | – | – | – | – | 3000 | 0.99
COc1cc(NC(C(=O)c2c[nH]c3ccc(OC(F)(F)F)cc23)c2ccc(F)cc2OC)cc(OCCO)c1 (racemic) [Compound 5, 2-(4-fluoro-2-methoxyphenyl)-2-((3-(2-hydroxyethoxy)-5-methoxyphenyl)amino)-1-(5-(trifluoromethoxy)-1H-indol-3-yl)ethanone] | – | – | – | – | – | – | – | – | – | – | 4500 | 0.5
